Entries after “also recorded” stand apart in the source; their conditions may differ.
What was measured:
MDA-MB-231 cells [1] = experiment: Transwell (Boyden chamber) migration assay; format: cell-based, human
Procedure: (§1) Transwell Migration Assay. A 24 well transwell plates (Costar, Corning, N.Y.) were coated with fibronectin. After 4 h of serum starvation, medium containing the same amount of compounds or DMSO were added to the upper chamber and incubated at 37° C. for 8 h. The number of migrated cells was counted in 10 separate 200×fields and averaged over three independent experiments. Cytotoxicity of the compounds on the cells was measured at the same concentrations used in the migration assay during the same incubation time. MTT was added 2 h before measuring.
as §1, with “A” for “Transwell Migration Assay. A”, “30 ng/μl of fibronectin at 4° C. overnight. 500 μl of 10% FBS RPMI-1640 medium containing compounds or 1% DMSO control was added to the lower chamber.” for “fibronectin.”, “starvation, 5×10^4 cells in 250 μl of 0.1% FBS” for “starvation,”, “h. […]” for “h.”, “time,” for “time.”, “measuring. […]” for “measuring.”

H1299 cells [2] = experiment: Transwell (Boyden chamber) migration assay; format: cell-based, human
Procedure: as §1
as §1, with “A” for “Transwell Migration Assay. A”, “30 ng/μl of fibronectin at 4° C. overnight. 500 μl of 10% FBS RPMI-1640 medium containing compounds or 1% DMSO control was added to the lower chamber.” for “fibronectin.”, “starvation, 5×10^4 cells in 250 μl of 0.1% FBS” for “starvation,”, “h. […]” for “h.”, “time,” for “time.”, “measuring. […]” for “measuring.”

MDA-MB-231 cells [3] = experiment: Wound healing assay; format: cell-based; settings: Homo sapiens; MDA-MB-231, wound healing; read-out: migration IC50
Procedure: (§2) Wound Healing Assay. Confluent cell monolayers in 12-well plates were wounded by scraping with a micropipette tip. The cells were washed and then cultured in complete media containing the compounds. The degree of wound closure was assessed in three randomly chosen regions by measuring the distance between the wound edges just after wounding and after 16 h under Nikon Diaphot 300 microscope.
(§3) Without being bound by theory, it is believed that, to invade neighboring tissue, cells must acquire additional motility, although invasion and migration may proceed through different mechanisms. […] The first uses the Boyden chamber apparatus to assess the effect of compound on migration primarily mediated by chemotaxis. […] The other approach to test for effects on migration was the wound healing assay, which probes migration mediated by a concentration gradient established by the wound. It is also not as sensitive to potential cytotoxic effects.

H1299 cells [4] = experiment: Wound healing assay; format: cell-based; settings: Homo sapiens, NCI-H1299, read-out: migration IC50
Procedure: as §2, §3

MDA-MB-231 cells [5] = experiment: Adhesion assay; format: cell-based, human; settings: MDA-MB-231, fibronectin- and vitronectin-coated wells
Procedure: (§4) Adhesion Assay. 96-well plates were coated with 15 ng/μl fibronectin (Sigma, St. Louis, Mo.) at 4° C. overnight, then blocked with 0.5% BSA in PBS for 1 h. After starving with serum-free medium for 3 h, H1299 or MDA-MB-231 (2.5×10^5 cells/ml) were trypsinized and suspended in 100 μl of 0.1% FBS medium with various concentrations of uPAR compounds or DMSO control at 37° C. for 90 min. Medium was then carefully suctioned out from each well. Each well was washed three times with PBS. MTT-assay was used to determine the number of remaining cells (adherent cells).
(§5) The numbers of attached cells were quantified by MTT assay. Adherent cells are also quantified with fluorescence. […] The lack of inhibition was found both on fibronectin- and vitronectin-coated wells.

H1299 cells [6] = experiment: Adhesion assay; format: cell-based, human; settings: H1299, fibronectin- and vitronectin-coated wells
Procedure: as §4, §5

MDA-MB-231 cells [7] = experiment: Invasion assay (Matrigel invasion chamber); format: cell-based, human
Procedure: (§6) Invasion Assay. Invasion assays are performed using the Biocoat Matrigel invasion chamber (BD Biosciences, Bedford, Mass.) according to the manufacturer's protocol. The undersurface of the inserts were coated with 30 ng/μl of fibronectin at 4° C. overnight. The filters were equilibrated with 0.5 ml serum-free medium for 2 h. After 4 h of serum starvation, cells were harvested and 5×10^4 cells/500 μl were plated onto the upper chamber of a Transwell filter in medium containing 0.1% FBS and the indicated compounds. 500 μl of 10% FBS medium containing the same amount of compounds or DMSO control were added to the lower chamber. After a 24 h incubation at 37° C. in 5% CO2, the filters were fixed and the number of cells that had invaded was determined as described for the migration assay.
(§7) Testing of the effects of IPR-465 on processes critical for metastasis in cell culture, starting with invasion, was undertaken. A Boyden chamber apparatus was used and results are shown in FIG. 3(a), where the bar groups correspond, from left to right, to H1299 invasion, H1299 cytotoxicity, MDA-MB-231 invasion, MDA-MB-231 cytotoxicity, and in FIG. 3(b), where the bar groups correspond, from left to right, to H1299 Boyden Chamber, H1299 wound healing, H1299 cytotoxicity, MDA-MB-231 Boyden Chamber, MDA-MB-231 wound healing, MDA-MB-231 cytotoxicity.
(§8) Ten fields of unit area on each membrane were counted for cell numbers (magnification, 200×). […] The effect of the compound appears to be more pronounced in MDA-MB-231 cells compared with H1299. The level of toxicity of the compounds is measured at each concentration within the timescale of the invasion experiment to ensure that the observed effects are not due to cytotoxicity (FIG. 3(a)).
(§9) MDA-MB-231 cells were transfected with siRNAs for uPAR, control siRNA (control) or with transfection reagent only (mock). After 48 h, cells were lysed and analysed by immunoblotting.

H1299 cells [8] = experiment: Invasion assay (Matrigel invasion chamber); format: cell-based, human
Procedure: as §6, §7, §8, §9

MDA-MB-231 cells [9] = experiment: Cytotoxicity (MTT); format: cell-based, human
Procedure: as §1
(§10) A 24 well transwell plates (Costar, Corning, N.Y.) were coated with 30 ng/μl of fibronectin at 4° C. overnight. 500 μl of 10% FBS RPMI-1640 medium containing compounds or 1% DMSO control was added to the lower chamber. After 4 h of serum starvation, 5×10^4 cells in 250 μl of 0.1% FBS medium containing the same amount of compounds or DMSO were added to the upper chamber and incubated at 37° C. for 8 h. Non-invaded cells on the top of the transwell were scrapped-off with a cotton swab, and the cells that had migrated through the filter were fixed in methanol for 30 min, stained with Hematoxylin Stain (Fisher, SH30-500D) for 1 h. The number of migrated cells was counted in 10 separate 200×fields and averaged over three independent experiments. Cytotoxicity of the compounds on the cells was measured at the same concentrations used in the migration assay during the same incubation time, MTT was added 2 h before measuring.
as §8

H1299 cells [10] = experiment: Cytotoxicity (MTT); format: cell-based, human
Procedure: as §1, §10, §8

uPAR = target: T1, uPAR (Homo sapiens, UniProt Q03405); experiment: Fluorescence polarization, direct binding to uPAR
T1 construct: uPAR comprising amino acids 1-277 was expressed in Drosophila S2 cells; made in house; host or cells: Drosophila S2 cells
T1 sequence (Q03405 23-299): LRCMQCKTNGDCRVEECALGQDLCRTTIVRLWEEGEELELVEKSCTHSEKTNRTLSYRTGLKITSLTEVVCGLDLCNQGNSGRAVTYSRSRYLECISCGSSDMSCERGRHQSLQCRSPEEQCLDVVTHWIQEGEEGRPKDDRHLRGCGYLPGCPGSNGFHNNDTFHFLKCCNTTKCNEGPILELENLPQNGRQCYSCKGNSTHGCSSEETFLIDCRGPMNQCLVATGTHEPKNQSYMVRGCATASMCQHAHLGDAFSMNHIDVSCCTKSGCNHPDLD
Procedure: Fluorescence polarization in the presence and absence of protein and were measured using identical conditions as described above.
The mP was evaluated in the a presence and absence of competing 10 μM GFD.

SMILES: CC1CC(C)CN(c2cc(Nc3ccccc3C(=O)O)c3c4c(onc24)-c2ccccc2C3=O)C1 (stereo not shown) [IPR-456]
- migration, Boyden chamber (MDA-MB-231 cells [1]): blocked migration in a dose-dependent manner
- migration, Boyden chamber (H1299 cells [2]): blocked migration in a dose-dependent manner
- IC50 (MDA-MB-231 cells [3]): ~150 µM
- IC50 (H1299 cells [4]): ~150 µM
- cell adhesion (MDA-MB-231 cells [5]): no effect on cell adhesion; also recorded: lack an effect
- cell adhesion (H1299 cells [6]): no effect on cell adhesion; also recorded: lack an effect
- IC50 (MDA-MB-231 cells [7]; Homo sapiens, MDA-MB-231): ~50 µM
- number of cells able to invade through the membrane (MDA-MB-231 cells [7]; MDA-MB-231): dose-dependent reduction
- influence on invasion (MDA-MB-231 cells [7]; MDA-MB-231 with siRNA knockdown of uPAR): no additional influence on invasion
- number of cells able to invade through the membrane (H1299 cells [8]; H1299): dose-dependent reduction
- influence on invasion (H1299 cells [8]; H1299 with siRNA knockdown of uPAR): no additional influence on invasion
- IC50 (H1299 cells [8]; Homo sapiens, NCI-H1299): ~50 µM
- cytotoxicity (MDA-MB-231 cells [9]; MDA-MB-231, cells harvested from migration assays): none was observed
- cytotoxicity (MDA-MB-231 cells [9]; MDA-MB-231, timescale of invasion experiment, concentrations reaching 200 μM): did not exhibit undue toxicity
- cytotoxicity (H1299 cells [10]; H1299, cells harvested from migration assays): none was observed
- cytotoxicity (H1299 cells [10]; H1299, timescale of invasion experiment, concentrations reaching 200 μM): did not exhibit undue toxicity
- Kd (uPAR; direct binding to uPAR by fluorescence polarization): 0.312 µM
- fluorescence polarization (mP) with increasing uPAR concentration (uPAR; excitation 530 nm, emission 600 nm): showed a dose response with increasing mP
- change in polarization with increasing uPAR (uPAR; in the presence of 10 μM competing GFD): no change in the polarization was detected

Reference: US9376406B2, “uPAR-uPA interaction inhibitors and methods for treating cancer” (Indiana University Research and Technology Corporation, priority 2011, dated 2016)
